Assay results taken from patent publication US20150343007A1, “EDIBLE COMPOSITION COMPRISING AN EXTRACT OF INULA RACEMOSA AND NARINGIN” (CONOPCO, INC. D/B/A UNILEVER, priority 2012, published 2015).

Biological target: T1, human recombinant Dipeptidyl peptidase-IV (DPP-IV) enzyme (Homo sapiens, UniProt P27487)
T1 construct: purchased PROSPEC ISRAEL ENZ 375
Assay: Invitro DPP-4 Enzyme Assay (Gly-Pro p-NA substrate, absorbance at 405 nm)
Type: biochemical
Conditions: 4 ng DPP-IV per well, 200 μl/well TRIS-HCl pH 8, 37° C., 1 hr; sample amounts (μg/well) per Table 1; Control 3 = 100% activity
Description: A 96 well plate (NEST Biotechnology Co. Ltd, Cat No 701001) was taken. In each well of 96 well plate extract of Inula racemosa (as prepared above), Naringin (SIGMA, Cat. No: N1376) and the combination of extract of Inula racemosa and naringin were put in varied concentration as per Table 1. In each well, 4 ng of human recombinant Dipeptidyl peptidase-IV (DPP-IV) enzyme (PROSPEC ISRAEL, Cat. No. ENZ 375) was also added. After that, the final volume was made up to 200 μl/well using TRIS-HCl buffer of pH-8. The TRIS-HCl buffer was prepared by adding 2.42 g of TRIS (Tris hydroxyl methyl amino methane; Supplier: Sisco Research Laboratory ltd, Cat No 2044122) base, 0.372 g of EDTA (SIGMA, Cat No E6758) and 5.644 g of NaCl in 900 mL of autoclaved milli-Q water (Millipore® India) and stirred it till it get dissolved (˜30 minutes). After that the pH of the solution was adjusted to 8.0 using HCl acid and then the volume of the solution was made up to 1000 mL with autoclaved milli-Q water.
The enzyme and combinations of extract of Inula racemosa and naringin were mixed for 1 min using microplate reader (BIO-RAD LAB INDIA, Model No. 680) and incubated in an incubator (Thermo Scientific, Model 3111; conditions: at 37° C.) for 10 minutes. After that the enzymatic reaction was initiated by adding 10 μL/well of the 19 mM of substrate Glycine-Proline para nitroanilide (Gly-Pro p-NA) (this is equivalent to GLP-1). Gly-Pro-p NA is a universally accepted and commercially available substrate for the enzyme DPP-4, due to the lack of availability of commercially available chromogenic GLP-1. We have used Gly-Pro-p NA in the assay which is equivalent to GLP-1. […]
All the above reaction mixture was again incubated for 1 hr in the same incubator under the same condition. […] After this the absorbance was measured at a wavelength of 405 nm using microplate reader (BIO-RAD LAB INDIA, Model No. 680). […]
The % activities of the DPP-4 for the other samples were calculated using the following formula:
The % inhibitions by the samples were then calculated by subtracting the activity from 100.

T1 sequence (P27487 whole entry): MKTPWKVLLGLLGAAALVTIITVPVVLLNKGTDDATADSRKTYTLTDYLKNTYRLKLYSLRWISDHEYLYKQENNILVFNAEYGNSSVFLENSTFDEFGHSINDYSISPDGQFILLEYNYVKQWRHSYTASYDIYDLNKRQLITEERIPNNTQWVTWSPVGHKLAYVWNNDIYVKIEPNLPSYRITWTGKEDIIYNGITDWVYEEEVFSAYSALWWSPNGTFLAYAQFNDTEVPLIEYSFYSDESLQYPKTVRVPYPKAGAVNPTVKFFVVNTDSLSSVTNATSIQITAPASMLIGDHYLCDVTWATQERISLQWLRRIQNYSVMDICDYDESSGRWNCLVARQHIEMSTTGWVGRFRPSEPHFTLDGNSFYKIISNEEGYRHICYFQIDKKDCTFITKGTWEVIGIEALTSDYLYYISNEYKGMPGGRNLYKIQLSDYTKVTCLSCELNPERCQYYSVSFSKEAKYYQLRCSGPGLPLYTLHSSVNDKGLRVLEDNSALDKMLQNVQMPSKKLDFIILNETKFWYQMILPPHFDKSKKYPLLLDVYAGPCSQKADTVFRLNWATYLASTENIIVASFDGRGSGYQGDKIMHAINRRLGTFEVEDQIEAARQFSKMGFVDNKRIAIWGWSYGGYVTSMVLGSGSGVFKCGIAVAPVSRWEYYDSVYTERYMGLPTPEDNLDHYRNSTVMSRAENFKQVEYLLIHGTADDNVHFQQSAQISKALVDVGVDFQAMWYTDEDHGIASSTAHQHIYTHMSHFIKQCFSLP

| SMILES | % Inhibition [%] |
| --- | --- |
| C[C@@H]1O[C@@H](O[C@H]2[C@H](Oc3cc(O)c4c(c3)O[C@H](c3ccc(O)cc3)CC4=O)O[C@H](CO)[C@@H](O)[C@@H]2O)[C@H](O)[C@H](O)[C@H]1O [C, 4,5,7-Trihydroxyflavanone 7-rhamnoglucoside] | 18.43 |
| C[C@@H]1O[C@@H](O[C@H]2[C@H](Oc3cc(O)c4c(c3)O[C@H](c3ccc(O)cc3)CC4=O)O[C@H](CO)[C@@H](O)[C@@H]2O)[C@H](O)[C@H](O)[C@H]1O [B, 4,5,7-Trihydroxyflavanone 7-rhamnoglucoside] | 18.54 |
| C[C@@H]1OC(OC2C(O)[C@H](O)C(CO)O[C@H]2Oc2cc(O)c3c(c2)O[C@H](c2ccc(O)cc2)CC3=O)[C@H](O)C(O)C1O (single isomer, unassigned) [D, 4,5,7-Trihydroxyflavanone 7-rhamnoglucoside] | 18.11 |
